Assay results from patent publication US9359405B2, “Antagonists of the interleukin-1 receptor” (Phlogo ApS, priority 2011, dated 2016).
No end group written: not given here.

Tests used:
[1] = tested on: NF-κB activated by IL1β (IL1RI signaling), HEK-Blue IL1β cells; experiment: IL1RI signaling assay, HEK-Blue IL1β reporter cells (NF-κB/SEAP); assay type: cell-based; conditions: IL1β 1.2 μM
Source text: (§1) IL1RI signaling assay: Commercially available Blue™ Cytokine Reporter Cell technology from InvivoGen (Denmark distributor: Sigma-Aldrich Denmark) was used. It is represented by an expanding family of engineered cell lines designed to provide a simple, rapid, and reliable method of monitoring the activation of signaling pathways induced by key cytokines. HEK-Blue™ IL1β cells are specifically engineered to selectively respond to IL1β, and they feature the secreted embryonic alkaline phosphatase (SEAP) reporter gene under the control of an NF-κB-inducible promoter. […] A target/receptor-specificity of the Ilantafin effect was verified employing HEK-Blue™ IL6 cells.

[2] = tested on: STAT signalling induced by IL6, HEK-Blue IL6 cells; experiment: Target specificity, HEK-Blue IL6 cells; assay type: cell-based
Source text: as §1

[3] = tested on: IL1β-activated AMJ2-C8 macrophage cells; experiment: TNFα secretion by IL1β-activated macrophages (L929/MTS bioassay); assay type: cell-based; conditions: IL1β 1.2 μM
Experimental: The Ilantafin peptide or IL1Ra or IL1RI was added to cultures of macrophages (AMJ2-C8) seeded in 6-well multi-dishes (Nunc) (2.5×10^5 cells/well). After 24 h of incubation at 37° C., IL1β (1.2 μM) was added to the cultures to activate the macrophages. L929 cells were seeded in a 96-well plate at a density of 2×10^5 cells/mL. Both cell cultures were incubated for 24 h at 37° C. Conditioned medium from the macrophage cultures was collected and added to the fibroblast cultures together with 0.6 μg/well actinomycin. D (Sigma-Aldrich). Finally, after 24 h of incubation at 37° C., 20 μl of 3-(4,5-dimethylthiazol-2-yl)-5-(3-carboxymethoxyphenyl)-2-(4-sulfophenyl)-2H-tetrazolium (MTS) (Promega, Madison, Wis., USA) was added to each well and the plates were incubated protected from light, at 37° C., for ˜45 min and the optical density was measured at 490 nm in a Sunrise absorbance reader (Tecan, Männedorf, Switzerland). In order to calculate the amount of TNF-α in the conditioned medium, a standard curve was obtained by treating fibroblasts with different concentrations of TNF-α (R&D systems, Minneapolis, Minn., USA).

[4] = tested on: cerebellar granule neurons; experiment: Neurite outgrowth in primary cerebellar granule neurons; assay type: cell-based, rat; conditions: 24 h, primary cerebellar neurons
Experimental: Cerebellar granular neurons (CGN) were prepared from 3 or 7 postnatal (P) day Wistar rats (Charles River, Sulzfeld, Germany or Taconic, Ejby, Denmark). Cerebella were cleared of meninges and blood vessels, roughly homogenized by chopping, and trypsinized with trypsin from Sigma-Aldrich (Brøndby, Denmark). The neurons were washed in the presence of DNAse 1 and soybean trypsin inhibitor (Sigma-Aldrich), and cellular debris was pelleted by centrifugation before plating. CGNs were plated at a density of 10,000 cells/well onto uncoated eight-well Lab-Tek chamber slides (NUNC, Slangerup, Denmark) in Neurobasal-A medium supplemented with 0.4% (w/v) BSA. Peptides or proteins at various concentrations were added to the medium immediately after plating, and cells were maintained at 37° C. and 5% CO2 for 24 h. Cultures then were fixed, blocked and incubated with polyclonal rabbit antibody against rat GAP-43 (Chemicon, Temecula, Calif., USA) followed by incubation with secondary Alexa Fluor488 goat anti-rabbit antibody (Molecular Probes, Eugene, Oreg., USA) as previously described (Neiiendam et al., 2004). The immunostained cultures were all recorded by computer-assisted fluorescence microscopy using a Nikon Diaphot inverted microscope (Nikon, Japan) equipped with a Nikon Plane 20× objective. Images were captured with a charge-coupled device video camera (Grundig Electronics, Nurnberg, Germany) using the software package Prima developed at the Protein Laboratory (University of Copenhagen, Copenhagen, Denmark). The length of neuronal processes per cell was estimated using the software package Process Length developed at the Protein Laboratory (Ronn et al. 2000). For estimation of neurite outgrowth, at least 200±20 cells were processed for each group in each individual experiment.

[5] = tested on: cerebellar granule neurons; experiment: Survival assay, cerebellar granule neurons, low-potassium apoptosis; assay type: cell-based, rat; conditions: 5 mM KCl
Experimental: Survival assay: Primary cultures of CGN were plated at a density of 100,000 cells/cm2 on poly-L-lysine coated 8-well permanox slides in Neurobasal-A medium (Gibco BRL) supplemented with 2% (v/v) B27, 0.5% (v/v) glutamax, 100 units/mL penicillin, 100 µg/mL streptomycin and KCl, making the final concentration of KCl in the medium 40 mM. 24 hours after plating, cytosine-b-D-arabinofuranoside (Ara-C; Sigma-Aldrich) was added to a final concentration of 10 μM to avoid proliferation of glial cells, after which the neurons were allowed to differentiate for a further 6 days at 37° C. Apoptotic cell death was induced by washing twice and changing the medium to Basal Medium Eagle (BME; Gibco BRL) supplemented with 1% (v/v) glutamine, 100 U/mL penicillin and 100 µg/mL streptomycin, 3.5 g D-glucose/L and 1% (v/v) sodium pyruvate (Gibco BRL) together with various concentrations of peptide. Thereby the concentration of potassium in the cultures was reduced to 5 mM KCl (Ditlevsen et al., 2003). Two days after induction of apoptosis, the cells were fixed with 4% (v/v) formaldehyde and stained with Hoechst 33258 as described for the survival assay employing hippocampal neurons.

IL1RI = biological target: T1, IL1RI (Homo sapiens, UniProt P14778); experiment: Kb (s^-1)
T1 construct: The recombinant protein comprising the whole extracellular part of IIL1RI was immobilised on the surface of a CM5 sensor chip
Source text: Table printed on a drawing sheet, Figure 3
Head of the field: Kb (s^-1)
First copying reader's note: Rate and affinity constants for binding to IL1RI; each cell holds the value with its ± error, and Ilantafin is a peptide while ILRa and IL1β are proteins.

T1 sequence (P14778 18-336): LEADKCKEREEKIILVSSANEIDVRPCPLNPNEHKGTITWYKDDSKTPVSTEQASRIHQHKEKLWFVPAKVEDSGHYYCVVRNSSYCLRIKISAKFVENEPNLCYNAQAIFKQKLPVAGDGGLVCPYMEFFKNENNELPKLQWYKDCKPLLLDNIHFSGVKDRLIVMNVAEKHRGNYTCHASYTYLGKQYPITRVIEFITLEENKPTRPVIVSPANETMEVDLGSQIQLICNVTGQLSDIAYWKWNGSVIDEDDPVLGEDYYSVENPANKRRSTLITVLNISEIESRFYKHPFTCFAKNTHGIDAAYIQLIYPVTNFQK

## SGRKSSKMQA [Ilantafin]
[1]
  inhibition of NF-κB activation induced by IL1β: inhibits activation of macrophages
[2]
  effect on STAT signalling induced by IL6: does not inhibit signaling induced by IL6
[3]
  inhibition of TNFα secretion by IL1β-activated macrophages: in a dose dependent manner inhibits the IL1β-induced activation of macrophages
[4]
  neurite outgrowth: induce neurite outgrowth in primary cerebellar neurons in a dose-dependent manner
[5]
  survival effect compared with IGF-1: comparable with the effect of the neuronal survival factor IGF-1
[5]; 2 days
  neuronal survival / cell death (apoptosis) induced by lowering potassium: reduces neuronal cell death (apoptosis)
IL1RI
  koff: 0.000753 s⁻¹
